Measurements from ChEMBL document CHEMBL4138123, “Design, synthesis and biological evaluation of novel pyrazolochalcones as potential modulators of PI3K/Akt/mTOR pathway and inducers of apoptosis in breast cancer cells” (Eur J Med Chem, 2017).

What was measured:
Type in all cases: functional
MDA-MB-468 [1] = assay: Cytotoxicity against human MDA-MB-468 cells assessed as cell growth at 0.01 uM after 48 hrs by sulforhodamine B assay relative to control; settings: MDA-MB-468, 48 h, read-out: Activity
HL-60(TB) = assay: Cytotoxicity against human HL-60(TB) cells assessed as cell growth at 100 uM after 48 hrs by sulforhodamine B assay relative to control; settings: HL-60, 48 h, read-out: Activity
SF-539 = assay: Cytotoxicity against human SF539 cells assessed as cell growth at 10 uM after 48 hrs by sulforhodamine B assay relative to control; settings: SF-539, 48 h, read-out: Activity
MOLT-4 = assay: Cytotoxicity against human MOLT4 cells assessed as cell growth at 100 uM after 48 hrs by sulforhodamine B assay relative to control; settings: MOLT-4, 48 h, read-out: Activity
HCT-116 = assay: Cytotoxicity against human HCT116 cells assessed as cell growth at 10 uM after 48 hrs by sulforhodamine B assay relative to control; settings: HCT-116, 48 h, read-out: Activity
A549 = assay: Cytotoxicity against human A549/ATCC cells assessed as cell growth at 10 uM after 48 hrs by sulforhodamine B assay relative to control; settings: A549, 48 h, read-out: Activity
OVCAR-5 = assay: Cytotoxicity against human OVCAR5 cells assessed as cell growth at 100 uM after 48 hrs by sulforhodamine B assay relative to control; settings: OVCAR-5, 48 h, read-out: Activity
SK-MEL-28 [2] = assay: Cytotoxicity against human SK-MEL-28 cells assessed as cell growth at 0.01 uM after 48 hrs by sulforhodamine B assay relative to control; settings: SK-MEL-28, 48 h, read-out: Activity
SK-MEL-28 [3] = assay: Cytotoxicity against human SK-MEL-28 cells assessed as cell growth at 0.1 uM after 48 hrs by sulforhodamine B assay relative to control; settings: SK-MEL-28, 48 h, read-out: Activity
ACHN [4] = assay: Cytotoxicity against human ACHN cells assessed as cell growth at 100 uM after 48 hrs by sulforhodamine B assay relative to control; settings: read-out: Activity
NCI-H322M = assay: Cytotoxicity against human NCI-H322M cells assessed as cell growth at 100 uM after 48 hrs by sulforhodamine B assay relative to control; settings: read-out: Activity
BT-549 = assay: Cytotoxicity against human BT549 cells assessed as cell growth at 10 uM after 48 hrs by sulforhodamine B assay relative to control; settings: BT-549, 48 h, read-out: Activity
NCI-H226 = assay: Cytotoxicity against human NCI-H226 cells assessed as cell growth at 100 uM after 48 hrs by sulforhodamine B assay relative to control; settings: NCI-H226, 48 h, read-out: Activity
ACHN [5] = assay: Cytotoxicity against human ACHN cells assessed as cell growth at 0.01 uM after 48 hrs by sulforhodamine B assay relative to control; settings: read-out: Activity
U-251 = assay: Cytotoxicity against human U251 cells assessed as cell growth at 100 uM after 48 hrs by sulforhodamine B assay relative to control; settings: U-251, 48 h, read-out: Activity
TK-10 = assay: Cytotoxicity against human TK10 cells assessed as growth inhibition after 48 hrs by sulforhodamine B assay; settings: TK-10, 48 h
OVCAR-8 = assay: Cytotoxicity against human OVCAR8 cells assessed as growth inhibition after 48 hrs by sulforhodamine B assay; settings: OVCAR-8, 48 h
MDA-MB-468 [6] = assay: Cytotoxicity against human MDA-MB-468 cells assessed as growth inhibition after 48 hrs by sulforhodamine B assay; settings: MDA-MB-468, 48 h
OVCAR-4 = assay: Cytotoxicity against human OVCAR4 cells assessed as cell growth at 0.01 uM after 48 hrs by sulforhodamine B assay relative to control; settings: OVCAR-4, 48 h, read-out: Activity
NCI/ADR-RES = assay: Cytotoxicity against human NCI/ADR-RES cells assessed as cell growth at 1 uM after 48 hrs by sulforhodamine B assay relative to control; settings: read-out: Activity
SK-MEL-28 [7] = assay: Cytotoxicity against human SK-MEL-28 cells assessed as cell growth at 100 uM after 48 hrs by sulforhodamine B assay relative to control; settings: SK-MEL-28, 48 h, read-out: Activity
SW-620 = assay: Cytotoxicity against human SW620 cells assessed as cell growth at 100 uM after 48 hrs by sulforhodamine B assay relative to control; settings: SW-620, 48 h, read-out: Activity
SR [8] = assay: Cytotoxicity against human SR cells assessed as cell growth at 100 uM after 48 hrs by sulforhodamine B assay relative to control; settings: read-out: Activity
MDA-MB-468 [9] = assay: Cytotoxicity against human MDA-MB-468 cells assessed as cell growth at 1 uM after 48 hrs by sulforhodamine B assay relative to control; settings: MDA-MB-468, 48 h, read-out: Activity
RXF 393 = assay: Cytotoxicity against human RXF393 cells assessed as cell growth at 0.1 uM after 48 hrs by sulforhodamine B assay relative to control; settings: RXF 393, 48 h, read-out: Activity
SK-MEL-28 [10] = assay: Cytotoxicity against human SK-MEL-28 cells assessed as growth inhibition after 48 hrs by sulforhodamine B assay; settings: SK-MEL-28, 48 h
RPMI-8226 = assay: Cytotoxicity against human RPMI8226 cells assessed as cell growth at 100 uM after 48 hrs by sulforhodamine B assay relative to control; settings: RPMI-8226, 48 h, read-out: Activity
NCI-H460 = assay: Cytotoxicity against human NCI-H460 cells assessed as cell growth at 100 uM after 48 hrs by sulforhodamine B assay relative to control; settings: NCI-H460, 48 h, read-out: Activity
SR [11] = assay: Cytotoxicity against human SR cells assessed as cell growth at 1 uM after 48 hrs by sulforhodamine B assay relative to control; settings: read-out: Activity
KM12 = assay: Cytotoxicity against human KM12 cells assessed as cell growth at 1 uM after 48 hrs by sulforhodamine B assay relative to control; settings: KM12, 48 h, read-out: Activity
SN12C = assay: Cytotoxicity against human SN12C cells assessed as cell growth at 100 uM after 48 hrs by sulforhodamine B assay relative to control; settings: read-out: Activity
Malme-3M [12] = assay: Cytotoxicity against human MALME-3M cells assessed as cell growth at 100 uM after 48 hrs by sulforhodamine B assay relative to control; settings: read-out: Activity
COLO 205 = assay: Cytotoxicity against human COLO205 cells assessed as cell growth at 0.1 uM after 48 hrs by sulforhodamine B assay relative to control; settings: COLO 205, 48 h, read-out: Activity
Malme-3M [13] = assay: Cytotoxicity against human MALME-3M cells assessed as cell growth at 0.01 uM after 48 hrs by sulforhodamine B assay relative to control; settings: read-out: Activity
ACHN [14] = assay: Cytotoxicity against human ACHN cells assessed as growth inhibition after 48 hrs by sulforhodamine B assay
OVCAR-3 = assay: Cytotoxicity against human OVCAR3 cells assessed as cell growth at 0.01 uM after 48 hrs by sulforhodamine B assay relative to control; settings: OVCAR-3, 48 h, read-out: Activity

Compound: COc1cc(-c2cc(/C=C/C(=O)c3ccc(N)cc3)[nH]n2)cc(OC)c1OC
- growth at 0.01 µM (MDA-MB-468 [1]): 90%
- growth at 100 µM (HL-60(TB)): -12%
- growth at 10 µM (SF-539): -93%
- growth at 100 µM (MOLT-4): -20%
- growth at 10 µM (HCT-116): -78%
- growth at 10 µM (A549): -15%
- growth at 100 µM (OVCAR-5): -66%
- growth at 0.01 µM (SK-MEL-28 [2]): 89%
- growth at 0.1 µM (SK-MEL-28 [3]): 95%
- growth at 100 µM (ACHN [4]): -63%
- growth at 100 µM (NCI-H322M): -89%
- growth at 10 µM (BT-549): -89%
- growth at 100 µM (NCI-H226): -59%
- growth at 0.01 µM (ACHN [5]): 95%
- growth at 100 µM (U-251): -98%
- GI50 (TK-10): 4.84 µM
- LC50 (TK-10): 51.6 µM
- TGI (TK-10): 17.5 µM
- GI50 (OVCAR-8): 2390 nM
- LC50 (OVCAR-8): 34.9 µM
- TGI (OVCAR-8): 9.76 µM
- GI50 (MDA-MB-468 [6]): 1010 nM
- LC50 (MDA-MB-468 [6]): 8.42 µM
- TGI (MDA-MB-468 [6]): 2910 nM
- growth at 0.01 µM (OVCAR-4): 85%
- growth at 1 µM (NCI/ADR-RES): 98%
- growth at 100 µM (SK-MEL-28 [7]): -83%
- growth at 100 µM (SW-620): -40%
- growth at 100 µM (SR [8]): -13%
- growth at 1 µM (MDA-MB-468 [9]): 50%
- growth at 0.1 µM (RXF 393): 91%
- GI50 (SK-MEL-28 [10]): 1860 nM
- LC50 (SK-MEL-28 [10]): 8.93 µM
- TGI (SK-MEL-28 [10]): 4.08 µM
- growth at 100 µM (RPMI-8226): -40%
- growth at 100 µM (NCI-H460): -59%
- growth at 1 µM (SR [11]): 14%
- growth at 1 µM (KM12): 57%
- growth at 100 µM (SN12C): -86%
- growth at 100 µM (Malme-3M [12]): -76%
- growth at 0.1 µM (COLO 205): 100%
- growth at 0.01 µM (Malme-3M [13]): 98%
- GI50 (ACHN [14]): 1610 nM
- LC50 (ACHN [14]): 8.4 µM
- TGI (ACHN [14]): 3.67 µM
- growth at 0.01 µM (OVCAR-3): 101%

Compound: COc1cc(C(=O)/C=C/c2cc(-c3cc(OC)c(OC)c(OC)c3)n[nH]2)cc(OC)c1OC
- growth at 0.01 µM (MDA-MB-468 [1]): 90%
- growth at 100 µM (HL-60(TB)): -33%
- growth at 10 µM (SF-539): -80%
- growth at 100 µM (MOLT-4): -15%
- growth at 10 µM (HCT-116): -99%
- growth at 10 µM (A549): 6%
- growth at 100 µM (OVCAR-5): -72%
- growth at 0.01 µM (SK-MEL-28 [2]): 101%
- growth at 0.1 µM (SK-MEL-28 [3]): 105%
- growth at 100 µM (ACHN [4]): -98%
- growth at 100 µM (NCI-H322M): -99%
- growth at 10 µM (BT-549): -96%
- growth at 100 µM (NCI-H226): -50%
- growth at 0.01 µM (ACHN [5]): 103%
- growth at 100 µM (U-251): -99%
- LC50 (TK-10): 5.34 µM
- TGI (TK-10): 2.8 µM
- LC50 (OVCAR-8): 6.81 µM
- TGI (OVCAR-8): 3.28 µM
- GI50 (MDA-MB-468 [6]): 1150 nM
- LC50 (MDA-MB-468 [6]): 5.37 µM
- TGI (MDA-MB-468 [6]): 2480 nM
- growth at 0.01 µM (OVCAR-4): 95%
- growth at 1 µM (NCI/ADR-RES): 95%
- growth at 100 µM (SK-MEL-28 [7]): -97%
- growth at 100 µM (SW-620): -95%
- growth at 100 µM (SR [8]): 7%
- growth at 1 µM (MDA-MB-468 [9]): 59%
- growth at 0.1 µM (RXF 393): 88%
- LC50 (SK-MEL-28 [10]): 6.07 µM
- TGI (SK-MEL-28 [10]): 3.33 µM
- growth at 100 µM (RPMI-8226): -26%
- growth at 100 µM (NCI-H460): -55%
- growth at 1 µM (SR [11]): 22%
- growth at 1 µM (KM12): 79%
- growth at 100 µM (SN12C): -97%
- growth at 100 µM (Malme-3M [12]): -94%
- growth at 0.1 µM (COLO 205): 102%
- growth at 0.01 µM (Malme-3M [13]): 100%
- LC50 (ACHN [14]): 5.57 µM
- TGI (ACHN [14]): 3.01 µM
- growth at 0.01 µM (OVCAR-3): 107%
